Laboratory results from publication PMC9090415, “Discovery of small molecule inhibitors of Plasmodium falciparum apicoplast DNA polymerase” (Journal of Enzyme Inhibition and Medicinal Chemistry, 2022).

Molecular target: T1, bacteriophage T4 DNA polymerase (Enterobacteria phage T4, UniProt P04415)
T1 construct: made in house
T1 sequence (P04415 1-898): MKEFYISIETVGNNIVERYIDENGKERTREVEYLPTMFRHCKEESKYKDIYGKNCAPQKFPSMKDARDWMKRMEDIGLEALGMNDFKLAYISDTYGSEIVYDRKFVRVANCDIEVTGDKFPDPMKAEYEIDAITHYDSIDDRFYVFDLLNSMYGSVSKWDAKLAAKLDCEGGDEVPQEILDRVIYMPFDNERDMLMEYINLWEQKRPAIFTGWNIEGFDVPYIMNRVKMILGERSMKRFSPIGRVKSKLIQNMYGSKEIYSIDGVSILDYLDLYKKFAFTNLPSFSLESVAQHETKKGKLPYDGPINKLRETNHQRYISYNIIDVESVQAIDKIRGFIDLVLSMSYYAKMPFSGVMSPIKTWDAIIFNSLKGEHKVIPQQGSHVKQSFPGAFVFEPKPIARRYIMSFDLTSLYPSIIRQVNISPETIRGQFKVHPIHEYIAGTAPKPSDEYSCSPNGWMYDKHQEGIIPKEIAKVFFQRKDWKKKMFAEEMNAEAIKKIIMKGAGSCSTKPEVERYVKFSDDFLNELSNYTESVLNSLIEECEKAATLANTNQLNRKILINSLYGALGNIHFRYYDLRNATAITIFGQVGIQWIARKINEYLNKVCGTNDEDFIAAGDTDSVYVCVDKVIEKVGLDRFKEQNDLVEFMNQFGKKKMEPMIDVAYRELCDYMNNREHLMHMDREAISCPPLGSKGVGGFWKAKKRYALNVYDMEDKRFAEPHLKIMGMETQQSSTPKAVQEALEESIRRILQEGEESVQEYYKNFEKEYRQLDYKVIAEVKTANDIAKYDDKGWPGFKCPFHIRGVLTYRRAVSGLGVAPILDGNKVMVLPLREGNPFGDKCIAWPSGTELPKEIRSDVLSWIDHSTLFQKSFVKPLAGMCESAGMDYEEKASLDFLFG
Assay: Counter-screen against bacteriophage T4 DNA polymerase
Format: biochemical
Settings: for % inhibition T4 10' 2.5 / % inhibition T4 10' 5 / % inhibition T4 10' 10 / % inhibition T4 10' 20 / % inhibition T4 10' 40 / % inhibition T4 10' 80: read at 10'
Procedure, shortened: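 IC50 values come from dose-response testing of each compound against T4 DNA polymerase. This B-family polymerase was purified in-house and used as the counter-screen.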

Compound: Cn1nc(-c2nnc(-c3ccccc3F)o2)c2c1CCN(C(=O)c1ccccc1Cl)C2 [Molecule 34, Cn1nc(c2c1CCN(C2)C(=O)c1ccccc1Cl)c1nnc(o1)c1ccccc1F]
- % inhibition T4 10' 2.5 (DRC-1, concentration 2.5): -0.603%
- % inhibition T4 10' 5 (DRC-1, concentration 5): -0.853%
- % inhibition T4 10' 10 (DRC-1, concentration 10): 3%
- % inhibition T4 10' 20 (DRC-1, concentration 20): 1.06%
- % inhibition T4 10' 40 (DRC-1, concentration 40): 1.22%
- % inhibition T4 10' 80 (DRC-1, concentration 80): 31%
- % inhibition T4 70' 2.5 (DRC-1, read at 70', concentration 2.5): -2.57%
- % inhibition T4 70' 5 (DRC-1, read at 70', concentration 5): -4%
- % inhibition T4 70' 10 (DRC-1, read at 70', concentration 10): -2%
- % inhibition T4 70' 20 (DRC-1, read at 70', concentration 20): -2.24%
- % inhibition T4 70' 40 (DRC-1, read at 70', concentration 40): -0.925%
- % inhibition T4 70' 80 (DRC-1, read at 70', concentration 80): 28%
- % inhibition T4 130' 2.5 (DRC-1, read at 130', concentration 2.5): -4%
- % inhibition T4 130' 5 (DRC-1, read at 130', concentration 5): -4%
- % inhibition T4 130' 10 (DRC-1, read at 130', concentration 10): -2.33%
- % inhibition T4 130' 20 (DRC-1, read at 130', concentration 20): -2.59%
- % inhibition T4 130' 40 (DRC-1, read at 130', concentration 40): 0.922%
- % inhibition T4 130' 80 (DRC-1, read at 130', concentration 80): 22%
- % inhibition T4 10' 2.5 (DRC-2, concentration 2.5): 0.487%
- % inhibition T4 10' 5 (DRC-2, concentration 5): -4%
- % inhibition T4 10' 10 (DRC-2, concentration 10): -3%
- % inhibition T4 10' 20 (DRC-2, concentration 20): 1.3%
- % inhibition T4 10' 40 (DRC-2, concentration 40): 3.35%
- % inhibition T4 10' 80 (DRC-2, concentration 80): 11%
- % inhibition T4 40' 2.5 (DRC-2, read at 40', concentration 2.5): -0.945%
- % inhibition T4 40' 5 (DRC-2, read at 40', concentration 5): -3.75%
- % inhibition T4 40' 10 (DRC-2, read at 40', concentration 10): -3%
- % inhibition T4 40' 20 (DRC-2, read at 40', concentration 20): 0.863%
- % inhibition T4 40' 40 (DRC-2, read at 40', concentration 40): 3.24%
- % inhibition T4 40' 80 (DRC-2, read at 40', concentration 80): 12%
- % inhibition T4 90' 2.5 (DRC-2, read at 90', concentration 2.5): -0.872%
- % inhibition T4 90' 5 (DRC-2, read at 90', concentration 5): -3.55%
- % inhibition T4 90' 10 (DRC-2, read at 90', concentration 10): -2.12%
- % inhibition T4 90' 20 (DRC-2, read at 90', concentration 20): 0.601%
- % inhibition T4 90' 40 (DRC-2, read at 90', concentration 40): 1.62%
- % inhibition T4 90' 80 (DRC-2, read at 90', concentration 80): 10%
- % inhibition T4 180' 2.5 (DRC-2, read at 180', concentration 2.5): -4.68%
- % inhibition T4 180' 5 (DRC-2, read at 180', concentration 5): -7.58%
- % inhibition T4 180' 10 (DRC-2, read at 180', concentration 10): -5%
- % inhibition T4 180' 20 (DRC-2, read at 180', concentration 20): -3.78%
- % inhibition T4 180' 40 (DRC-2, read at 180', concentration 40): -2.41%
- % inhibition T4 180' 80 (DRC-2, read at 180', concentration 80): 6%

Compound: CCCCC(=O)N1CCc2c(nc3cc(-c4ccccc4Cl)[nH]n3c2=O)C1 [Molecule 37, CCCCC(=O)N1CCc2c(C1)nc1n(c2=O)[nH]c(c1)c1ccccc1Cl]
- % inhibition T4 10' (DRC-2, concentration 2.5): 6%
- % inhibition T4 10' (DRC-2, concentration 5): -3%
- % inhibition T4 10' (DRC-2, concentration 10): 3.42%
- % inhibition T4 10' (DRC-2, concentration 20): 0.821%
- % inhibition T4 10' (DRC-2, concentration 40): 4.74%
- % inhibition T4 10' (DRC-2, concentration 80): 1.57%
- % inhibition T4 40' (DRC-2, concentration 2.5): 6%
- % inhibition T4 40' (DRC-2, concentration 5): -3%
- % inhibition T4 40' (DRC-2, concentration 10): 3.42%
- % inhibition T4 40' (DRC-2, concentration 20): 0.821%
- % inhibition T4 40' (DRC-2, concentration 40): 4.74%
- % inhibition T4 40' (DRC-2, concentration 80): 1.57%
- % inhibition T4 90' (DRC-2, concentration 2.5): 5%
- % inhibition T4 90' (DRC-2, concentration 40): 5%

Compound: Cc1ccccc1C(=O)N1CCc2c(nc3cc(-c4ccccc4)[nH]n3c2=O)C1 [Molecule 41, Cc1ccccc1C(=O)N1CCc2c(C1)nc1n(c2=O)[nH]c(c1)c1ccccc1]
- % inhibition T4 10' (DRC-2, concentration 2.5): 10%
- % inhibition T4 10' (DRC-2, concentration 5): 13%
- % inhibition T4 10' (DRC-2, concentration 10): 5%
- % inhibition T4 10' (DRC-2, concentration 20): -10%
- % inhibition T4 10' (DRC-2, concentration 40): -26%
- % inhibition T4 10' (DRC-2, concentration 80): -46%
- % inhibition T4 40' (DRC-2, concentration 2.5): 10%
- % inhibition T4 40' (DRC-2, concentration 5): 13%
- % inhibition T4 40' (DRC-2, concentration 10): 5%
- % inhibition T4 40' (DRC-2, concentration 20): -10%
- % inhibition T4 40' (DRC-2, concentration 40): -26%
- % inhibition T4 40' (DRC-2, concentration 80): -46%

Compound: O=C(Cn1ccc2c(=O)[nH]ccc21)Nc1cc(F)ccc1F [Molecule 42, O=C(Cn1ccc2c1cc[nH]c2=O)Nc1cc(F)ccc1F]
- % inhibition T4 10' (DRC-2, concentration 2.5): -1.82%
- % inhibition T4 10' (DRC-2, concentration 5): -13%
- % inhibition T4 10' (DRC-2, concentration 20): -4%
- % inhibition T4 10' (DRC-2, concentration 80): -13%
- % inhibition T4 40' (DRC-2, concentration 20): -4%
- % inhibition T4 40' (DRC-2, concentration 80): -13%
- % inhibition T4 180' (DRC-2, concentration 2.5): -1.82%
- % inhibition T4 180' (DRC-2, concentration 80): -13%
